This note sets out measurements from patent publication US20060063818A1, “Hydantoin derivatives and deren verwendung als tace inhibitoren” (priority 2002, published 2006).

In the assay the target is T1, proTNF-α convertase enzyme (TACE) (Homo sapiens, UniProt P78536).
T1 construct: a partially purified, isolated enzyme assay, the enzyme being obtained from the membranes of TBP-1; endogenous in cells
Briefly: Isolated enzyme assay, proTNF-α convertase (TACE), fluorogenic peptide substrate. It counts as biochemical. The note with it: partially purified enzyme from membranes of TBP-1; 26° C. for 4 hours; read-out: concentration of compound that gave 50% inhibition of TACE. How it is done:
Recombinant human proMMP13 may be expressed and purified as described by Knauper et al. [V. Knauper et al., (1996) The Biochemical Journal 271:1544-1550 (1996)]. The purified enzyme can be used to monitor inhibitors of activity as follows: purified proMMP13 is activated using lmM amino phenyl mercuric […] (APMA), 20 hours at 21° C.; the activated MMP13 (11.25 ng per assay) is incubated for 4-5 hours at 35° C. in assay buffer (0.1M Tris-HCl, pH 7.5 containing 0.1M NaCl, 20 mM CaCl2, 0.02 mM ZnCl and 0.05% (w/v) Brij 35 using the synthetic substrate 7-methoxycoumarin-4-yl)acetyl.Pro.Leu.Gly.Leu.N-3-(2,4-dinitrophenyl)-L2,3-diaminopropionyl.Ala.Arg.NH2 in the presence or absence of inhibitors. Activity is determined by measuring the fluorescence at λex 328 nm and λem 393 nm. Percent inhibition is calculated as follows: % Inhibition is equal to the […].
The ability of the compounds to inhibit proTNF-α convertase enzyme (TACE) may be assessed using a partially purified, isolated enzyme assay, the enzyme being obtained from the membranes of TBP-1 as described by K. M. Mohler et al., (1994) Nature 370:218-220. […] The amount of inhibition is determined as for MMP13 except λex 485 nm and λem 538 nm were used. […]

pIC50: −log10 of the molar value.

T1 sequence (P78536 215-824): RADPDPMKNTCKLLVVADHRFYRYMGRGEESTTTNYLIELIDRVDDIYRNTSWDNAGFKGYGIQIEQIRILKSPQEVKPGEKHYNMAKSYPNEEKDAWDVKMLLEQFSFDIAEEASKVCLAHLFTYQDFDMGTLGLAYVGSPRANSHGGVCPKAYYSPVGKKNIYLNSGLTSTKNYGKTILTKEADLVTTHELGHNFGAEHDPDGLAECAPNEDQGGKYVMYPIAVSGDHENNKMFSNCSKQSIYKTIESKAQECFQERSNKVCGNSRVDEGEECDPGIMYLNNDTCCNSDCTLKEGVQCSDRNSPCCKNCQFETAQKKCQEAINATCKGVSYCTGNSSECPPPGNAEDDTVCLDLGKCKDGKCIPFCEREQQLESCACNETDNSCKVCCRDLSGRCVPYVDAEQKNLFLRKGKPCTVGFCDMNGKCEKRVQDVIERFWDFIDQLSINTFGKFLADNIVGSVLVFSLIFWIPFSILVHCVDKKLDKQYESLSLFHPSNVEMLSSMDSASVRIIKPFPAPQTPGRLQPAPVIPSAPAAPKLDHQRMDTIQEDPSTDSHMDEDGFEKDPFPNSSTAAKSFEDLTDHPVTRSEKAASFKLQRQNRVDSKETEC

`Cc1cc(COc2ccc(C3(C)CCN(CC4(c5ccccc5)NC(=O)NC4=O)C3=O)cc2)c2ccccc2n1` (stereo not shown) [compound 6, 5-{3-Methyl-3-[4-(2-methylquinolin-4-ylmethoxy)phenyl]-2oxopyrrolidin-1-ylmethyl}-5-phenylimidazolidine-2,4-dione]: the pIC50 is 6.89.
